# From the NIST ThermoML archive (doi:10.1016/j.jct.2011.10.009)
# ± gives the expanded uncertainty stated by the source.
# Test: xn = mol fraction of the nth substance listed
# Conditions: 101 kPa, Liquid, Vibrating tube method
compound,measurement,setting,value
CCO [ethanol] + O,mass density,"278.15 K, x2 = 0.0009961",802.2 ± 0.14 kg/m3
same,mass density,"278.15 K, x2 = 0.002144",802.34 ± 0.2 kg/m3
same,mass density,"278.15 K, x2 = 0.004143",802.59 ± 0.35 kg/m3
same,mass density,"278.15 K, x2 = 0.00674",802.91 ± 0.55 kg/m3
same,mass density,"278.15 K, x2 = 0.009286",803.22 ± 0.75 kg/m3
same,mass density,"278.15 K, x2 = 0.01189",803.54 ± 0.96 kg/m3
same,mass density,"278.15 K, x2 = 0.01442",803.85 ± 1.2 kg/m3
same,mass density,"278.15 K, x2 = 0.01794",804.29 ± 1.4 kg/m3
same,mass density,"278.15 K, x2 = 0.02115",804.68 ± 1.7 kg/m3
same,mass density,"278.15 K, x2 = 0.02506",805.17 ± 2 kg/m3
same,mass density,"278.15 K, x2 = 0.0292",805.69 ± 2.4 kg/m3
same,mass density,"278.15 K, x2 = 0.03125",805.94 ± 2.5 kg/m3
same,mass density,"278.15 K, x2 = 0.0336",806.24 ± 2.7 kg/m3
same,mass density,"278.15 K, x2 = 0.03661",806.61 ± 3 kg/m3
same,mass density,"288.15 K, x2 = 0.0009961",793.72 ± 0.14 kg/m3
same,mass density,"288.15 K, x2 = 0.002144",793.86 ± 0.2 kg/m3
same,mass density,"288.15 K, x2 = 0.004143",794.1 ± 0.35 kg/m3
same,mass density,"288.15 K, x2 = 0.00674",794.42 ± 0.55 kg/m3
same,mass density,"288.15 K, x2 = 0.009286",794.73 ± 0.75 kg/m3
same,mass density,"288.15 K, x2 = 0.01189",795.06 ± 0.95 kg/m3
same,mass density,"288.15 K, x2 = 0.01442",795.37 ± 1.1 kg/m3
same,mass density,"288.15 K, x2 = 0.01794",795.8 ± 1.4 kg/m3
same,mass density,"288.15 K, x2 = 0.02115",796.2 ± 1.7 kg/m3
same,mass density,"288.15 K, x2 = 0.02506",796.68 ± 2 kg/m3
same,mass density,"288.15 K, x2 = 0.0292",797.2 ± 2.3 kg/m3
same,mass density,"288.15 K, x2 = 0.03125",797.46 ± 2.5 kg/m3
same,mass density,"288.15 K, x2 = 0.0336",797.75 ± 2.7 kg/m3
same,mass density,"288.15 K, x2 = 0.03661",798.13 ± 2.9 kg/m3
same,mass density,"298.15 K, x2 = 0.0009961",785.15 ± 0.14 kg/m3
same,mass density,"298.15 K, x2 = 0.002144",785.29 ± 0.21 kg/m3
same,mass density,"298.15 K, x2 = 0.004143",785.53 ± 0.35 kg/m3
same,mass density,"298.15 K, x2 = 0.00674",785.85 ± 0.54 kg/m3
same,mass density,"298.15 K, x2 = 0.009286",786.16 ± 0.74 kg/m3
same,mass density,"298.15 K, x2 = 0.01189",786.48 ± 0.94 kg/m3
same,mass density,"298.15 K, x2 = 0.01442",786.79 ± 1.1 kg/m3
same,mass density,"298.15 K, x2 = 0.01794",787.22 ± 1.4 kg/m3
same,mass density,"298.15 K, x2 = 0.02115",787.61 ± 1.7 kg/m3
same,mass density,"298.15 K, x2 = 0.02506",788.1 ± 2 kg/m3
same,mass density,"298.15 K, x2 = 0.0292",788.61 ± 2.3 kg/m3
same,mass density,"298.15 K, x2 = 0.03125",788.87 ± 2.5 kg/m3
same,mass density,"298.15 K, x2 = 0.0336",789.16 ± 2.6 kg/m3
same,mass density,"298.15 K, x2 = 0.03661",789.54 ± 2.9 kg/m3
same,mass density,"308.15 K, x2 = 0.0009961",776.47 ± 0.14 kg/m3
same,mass density,"308.15 K, x2 = 0.002144",776.61 ± 0.21 kg/m3
same,mass density,"308.15 K, x2 = 0.004143",776.85 ± 0.34 kg/m3
same,mass density,"308.15 K, x2 = 0.00674",777.16 ± 0.54 kg/m3
same,mass density,"308.15 K, x2 = 0.009286",777.47 ± 0.73 kg/m3
same,mass density,"308.15 K, x2 = 0.01189",777.79 ± 0.93 kg/m3
same,mass density,"308.15 K, x2 = 0.01442",778.09 ± 1.1 kg/m3
same,mass density,"308.15 K, x2 = 0.01794",778.52 ± 1.4 kg/m3
same,mass density,"308.15 K, x2 = 0.02115",778.92 ± 1.6 kg/m3
same,mass density,"308.15 K, x2 = 0.02506",779.4 ± 2 kg/m3
same,mass density,"308.15 K, x2 = 0.0292",779.91 ± 2.3 kg/m3
same,mass density,"308.15 K, x2 = 0.03125",780.16 ± 2.4 kg/m3
same,mass density,"308.15 K, x2 = 0.0336",780.45 ± 2.6 kg/m3
same,mass density,"308.15 K, x2 = 0.03661",780.83 ± 2.9 kg/m3
same,mass density,"318.15 K, x2 = 0.0009961",767.66 ± 0.15 kg/m3
same,mass density,"318.15 K, x2 = 0.002144",767.79 ± 0.21 kg/m3
same,mass density,"318.15 K, x2 = 0.004143",768.03 ± 0.34 kg/m3
same,mass density,"318.15 K, x2 = 0.00674",768.34 ± 0.53 kg/m3
same,mass density,"318.15 K, x2 = 0.009286",768.65 ± 0.72 kg/m3
same,mass density,"318.15 K, x2 = 0.01189",768.96 ± 0.92 kg/m3
same,mass density,"318.15 K, x2 = 0.01442",769.26 ± 1.1 kg/m3
same,mass density,"318.15 K, x2 = 0.01794",769.69 ± 1.4 kg/m3
same,mass density,"318.15 K, x2 = 0.02115",770.08 ± 1.6 kg/m3
same,mass density,"318.15 K, x2 = 0.02506",770.56 ± 1.9 kg/m3
same,mass density,"318.15 K, x2 = 0.0292",771.06 ± 2.2 kg/m3
same,mass density,"318.15 K, x2 = 0.03125",771.31 ± 2.4 kg/m3
same,mass density,"318.15 K, x2 = 0.0336",771.6 ± 2.6 kg/m3
same,mass density,"318.15 K, x2 = 0.03661",771.97 ± 2.8 kg/m3
[2H]C(C)O (stereo not given) [ethanol-1-d] + [2H]O[2H],mass density,"278.15 K, x2 = 0.001004",819.11 ± 0.16 kg/m3
same,mass density,"278.15 K, x2 = 0.00168",819.21 ± 0.19 kg/m3
same,mass density,"278.15 K, x2 = 0.00308",819.43 ± 0.29 kg/m3
same,mass density,"278.15 K, x2 = 0.005192",819.67 ± 0.45 kg/m3
same,mass density,"278.15 K, x2 = 0.008159",820.22 ± 0.68 kg/m3
same,mass density,"278.15 K, x2 = 0.01089",820.65 ± 0.91 kg/m3
same,mass density,"278.15 K, x2 = 0.01426",821.17 ± 1.2 kg/m3
same,mass density,"278.15 K, x2 = 0.0173",821.64 ± 1.4 kg/m3
same,mass density,"278.15 K, x2 = 0.02028",822.1 ± 1.7 kg/m3
same,mass density,"278.15 K, x2 = 0.02325",822.56 ± 1.9 kg/m3
same,mass density,"278.15 K, x2 = 0.02639",823.05 ± 2.2 kg/m3
same,mass density,"278.15 K, x2 = 0.03026",823.65 ± 2.5 kg/m3
same,mass density,"278.15 K, x2 = 0.03472",824.23 ± 2.9 kg/m3
same,mass density,"278.15 K, x2 = 0.03723",824.72 ± 3.1 kg/m3
same,mass density,"288.15 K, x2 = 0.001004",810.48 ± 0.16 kg/m3
same,mass density,"288.15 K, x2 = 0.00168",810.58 ± 0.19 kg/m3
same,mass density,"288.15 K, x2 = 0.00308",810.8 ± 0.29 kg/m3
same,mass density,"288.15 K, x2 = 0.005192",811.12 ± 0.44 kg/m3
same,mass density,"288.15 K, x2 = 0.008159",811.58 ± 0.68 kg/m3
same,mass density,"288.15 K, x2 = 0.01089",812.01 ± 0.9 kg/m3
same,mass density,"288.15 K, x2 = 0.01426",812.53 ± 1.2 kg/m3
same,mass density,"288.15 K, x2 = 0.0173",813 ± 1.4 kg/m3
same,mass density,"288.15 K, x2 = 0.02028",813.46 ± 1.7 kg/m3
same,mass density,"288.15 K, x2 = 0.02325",813.91 ± 1.9 kg/m3
same,mass density,"288.15 K, x2 = 0.02639",814.4 ± 2.2 kg/m3
same,mass density,"288.15 K, x2 = 0.03026",814.99 ± 2.5 kg/m3
same,mass density,"288.15 K, x2 = 0.03472",815.57 ± 2.8 kg/m3
same,mass density,"288.15 K, x2 = 0.03723",816.06 ± 3 kg/m3
same,mass density,"298.15 K, x2 = 0.001004",801.72 ± 0.16 kg/m3
same,mass density,"298.15 K, x2 = 0.00168",801.83 ± 0.2 kg/m3
same,mass density,"298.15 K, x2 = 0.00308",802.05 ± 0.29 kg/m3
same,mass density,"298.15 K, x2 = 0.005192",802.37 ± 0.44 kg/m3
same,mass density,"298.15 K, x2 = 0.008159",802.83 ± 0.67 kg/m3
same,mass density,"298.15 K, x2 = 0.01089",803.25 ± 0.89 kg/m3
same,mass density,"298.15 K, x2 = 0.01426",803.76 ± 1.2 kg/m3
same,mass density,"298.15 K, x2 = 0.0173",804.23 ± 1.4 kg/m3
same,mass density,"298.15 K, x2 = 0.02028",804.69 ± 1.6 kg/m3
same,mass density,"298.15 K, x2 = 0.02325",805.14 ± 1.9 kg/m3
same,mass density,"298.15 K, x2 = 0.02639",805.62 ± 2.1 kg/m3
same,mass density,"298.15 K, x2 = 0.03026",806.21 ± 2.4 kg/m3
same,mass density,"298.15 K, x2 = 0.03472",806.78 ± 2.8 kg/m3
same,mass density,"298.15 K, x2 = 0.03723",807.27 ± 3 kg/m3
same,mass density,"308.15 K, x2 = 0.001004",792.83 ± 0.17 kg/m3
same,mass density,"308.15 K, x2 = 0.00168",792.94 ± 0.2 kg/m3
same,mass density,"308.15 K, x2 = 0.00308",793.15 ± 0.28 kg/m3
same,mass density,"308.15 K, x2 = 0.005192",793.47 ± 0.44 kg/m3
same,mass density,"308.15 K, x2 = 0.008159",793.93 ± 0.66 kg/m3
same,mass density,"308.15 K, x2 = 0.01089",794.34 ± 0.88 kg/m3
same,mass density,"308.15 K, x2 = 0.01426",794.86 ± 1.1 kg/m3
same,mass density,"308.15 K, x2 = 0.0173",795.32 ± 1.4 kg/m3
same,mass density,"308.15 K, x2 = 0.02028",795.77 ± 1.6 kg/m3
same,mass density,"308.15 K, x2 = 0.02325",796.22 ± 1.9 kg/m3
same,mass density,"308.15 K, x2 = 0.02639",796.7 ± 2.1 kg/m3
same,mass density,"308.15 K, x2 = 0.03026",797.28 ± 2.4 kg/m3
same,mass density,"308.15 K, x2 = 0.03472",797.85 ± 2.8 kg/m3
same,mass density,"308.15 K, x2 = 0.03723",798.33 ± 3 kg/m3
same,mass density,"318.15 K, x2 = 0.001004",783.78 ± 0.17 kg/m3
same,mass density,"318.15 K, x2 = 0.00168",783.89 ± 0.2 kg/m3
same,mass density,"318.15 K, x2 = 0.00308",784.1 ± 0.28 kg/m3
same,mass density,"318.15 K, x2 = 0.005192",784.42 ± 0.43 kg/m3
same,mass density,"318.15 K, x2 = 0.008159",784.87 ± 0.66 kg/m3
same,mass density,"318.15 K, x2 = 0.01089",785.28 ± 0.87 kg/m3
same,mass density,"318.15 K, x2 = 0.01426",785.79 ± 1.1 kg/m3
same,mass density,"318.15 K, x2 = 0.0173",786.25 ± 1.4 kg/m3
same,mass density,"318.15 K, x2 = 0.02028",786.7 ± 1.6 kg/m3
same,mass density,"318.15 K, x2 = 0.02325",787.14 ± 1.8 kg/m3
same,mass density,"318.15 K, x2 = 0.02639",787.61 ± 2.1 kg/m3
same,mass density,"318.15 K, x2 = 0.03026",788.19 ± 2.4 kg/m3
same,mass density,"318.15 K, x2 = 0.03472",788.76 ± 2.7 kg/m3
same,mass density,"318.15 K, x2 = 0.03723",789.23 ± 2.9 kg/m3
